System: T1, native SmNACE
T1 construct: native ectoenzyme on the outer tegument of live adult worms (2 male + 2 female per well)
Assay: fluorimetric NAD glycohydrolase assay on live adult worms, ε-ADPR release
Assay type: cell-based, Schistosoma mansoni
Conditions: ε-NAD substrate (20 μM in the assay), live worms (2 male + 2 female) in 200 μl HBSS, 37 °C
Description: fluorimetric NAD glycohydrolase assay on live adult worms, ε-ADPR release on native SmNACE | The IC50 of CMP1 on live parasites is indicated.

## Cc1occc1C(=O)N/N=C\c1ccc(O)c(O)c1 [CMP1, (Z)-N′-(3,4-Dihydroxybenzylidene)-2-methylfuran-3-carbohydrazide]
  IC50: 78 µM

Source: paper PMC7252647, “Inhibition of the NAD salvage pathway in schistosomes impairs metabolism, reproduction, and parasite survival” (PLoS Pathogens, 2020)
